This note sets out measurements from US20100179093A1, “Neoropeptide-2-Receptor (Y-2R) Agonists” (priority 2008, published 2010).

What all share (format): cell-based
In one assay the target is Y4R (Homo sapiens, UniProt P50391). Description: CaFlux Assay (FLIPR), Y4R.
Assay [1] has as its target T1, hNPY2R (Homo sapiens, UniProt P49146).
T1 sequence (P49146 1-381): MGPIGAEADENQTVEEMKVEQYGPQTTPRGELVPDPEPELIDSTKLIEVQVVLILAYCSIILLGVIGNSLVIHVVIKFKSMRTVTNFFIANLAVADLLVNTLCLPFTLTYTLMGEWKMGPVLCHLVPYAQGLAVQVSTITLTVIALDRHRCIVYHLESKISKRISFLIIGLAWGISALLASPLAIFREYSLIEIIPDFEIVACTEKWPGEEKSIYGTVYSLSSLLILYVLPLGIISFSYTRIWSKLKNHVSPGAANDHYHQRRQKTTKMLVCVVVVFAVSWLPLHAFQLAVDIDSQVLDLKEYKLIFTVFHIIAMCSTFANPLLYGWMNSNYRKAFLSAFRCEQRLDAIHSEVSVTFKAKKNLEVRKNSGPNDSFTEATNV
Description: CaFlux Assay (FLIPR), Y2R. Also on record: expressed in transfected cells; host or cells: HEK-293 stably expressing G protein chimera Gaqi9.
Description: Hek-293 cells were stably transfected with the G protein chimera Gaqi9 and the hygromycin-B resistance gene were further transfected with the human NPY2 receptor and G418 antibiotic selection. Following selection in both hygromycin-B and G418, individual clones were assayed for their response to PYY. The transfected cells were cultured in DMEM medium supplemented with 10% fetal bovine serum, 50 μg/mL hygromycin-B 2 mM glutamine, 100 U/mL penicillin, 100 μg/mL streptomycin and 250 μg/mL G418. Cells are harvested with trypsin-EDTA and counted using ViaCount reagent. The cell suspension volume is adjusted to 4.8×10^5 cells/mL with complete growth media. Aliquots of 25 μL are dispensed into 384 well Poly-D Lysine coated black/clear microplates (Falcon) and the microplates were placed in a 37° C. CO2 incubator overnight. Loading Buffer (Calcium-3 Assay Kit, Molecular Devices) was prepared by dissolving the contents of one vial (Express Kit) into 1000 mL Hank's Balanced Salt Solution containing 20 mM HEPES and 5 mM probenecid. Aliquots of 25 μL of diluted dye were dispensed into the cell plates and the plates are then incubated for 1 hour at 37° C. During the incubation, test compounds were prepared at 3.5× the desired concentration in HBSS (20 mM HEPES)/0.05% BSA/1% DMSO and transferred to a 384 well plate for use on FLIPR. After incubation, both the cell and compound plates were brought to the FLIPR and 20 μL of the diluted compounds were transferred to the cell plates by the FLIPR. During the assay, fluorescence readings were taken simultaneously from all 384 wells of the cell plate every 1.5 seconds. Five readings were taken to establish a stable baseline, and then 20 μL of sample was rapidly (30 μL/sec) and simultaneously added to each well of the cell plate. The fluorescence was continuously monitored before, during and after sample addition for a total elapsed time of 100 seconds. Responses (increase in peak fluorescence) in each well following addition were determined. The initial fluorescence reading from each well, prior to ligand stimulation, was used as a zero baseline value for the data from that well. The responses are expressed as % of maximal response of the positive control.

For the next assay, the target named is T2, Y1R (Homo sapiens, UniProt P25929).
T2 sequence (P25929 1-384): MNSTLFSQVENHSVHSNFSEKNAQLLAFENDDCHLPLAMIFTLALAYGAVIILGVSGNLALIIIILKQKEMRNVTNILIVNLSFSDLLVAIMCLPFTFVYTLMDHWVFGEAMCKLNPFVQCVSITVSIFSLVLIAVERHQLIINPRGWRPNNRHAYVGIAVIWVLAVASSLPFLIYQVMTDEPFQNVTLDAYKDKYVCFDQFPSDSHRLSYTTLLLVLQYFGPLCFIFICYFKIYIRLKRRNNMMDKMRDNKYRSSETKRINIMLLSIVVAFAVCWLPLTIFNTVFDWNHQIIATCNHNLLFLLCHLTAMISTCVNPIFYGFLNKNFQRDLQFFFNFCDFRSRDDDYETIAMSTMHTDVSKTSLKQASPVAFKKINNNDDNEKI
Description: CaFlux Assay (FLIPR), Y1R.

The target in the next assay is T3, Y5R (Homo sapiens, UniProt Q15761).
T3 sequence (Q15761 1-445): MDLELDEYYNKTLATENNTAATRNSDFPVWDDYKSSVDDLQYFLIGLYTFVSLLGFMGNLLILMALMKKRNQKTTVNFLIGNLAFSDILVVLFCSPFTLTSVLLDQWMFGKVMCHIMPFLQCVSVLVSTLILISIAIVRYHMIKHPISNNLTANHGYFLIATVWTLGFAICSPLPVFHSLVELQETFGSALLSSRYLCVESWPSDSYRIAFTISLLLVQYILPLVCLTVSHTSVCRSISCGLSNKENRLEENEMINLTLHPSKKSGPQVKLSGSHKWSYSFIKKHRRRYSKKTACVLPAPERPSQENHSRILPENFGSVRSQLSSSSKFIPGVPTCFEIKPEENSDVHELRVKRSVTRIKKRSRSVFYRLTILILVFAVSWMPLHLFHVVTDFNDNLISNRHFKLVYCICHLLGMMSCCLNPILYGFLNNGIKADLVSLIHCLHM
The assay is described as follows: CaFlux Assay (FLIPR), Y5R.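 On Emax: percent of the maximal response of the positive control agonist.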 To be noted: for Emax: read-out: Y5R FLIPR, percentage in parentheses under the EC50.

The target in assay [2] is T1, hNPY2R. Description: cAMP Agonist Assay, HEK293/hNPY2R cells. Also on record: expressed in transfected cells; host or cells: HEK293/hNPY2R (G418 selection).

pEC50: −log10 of the molar value.

Chain of Y4R (P50391 whole entry): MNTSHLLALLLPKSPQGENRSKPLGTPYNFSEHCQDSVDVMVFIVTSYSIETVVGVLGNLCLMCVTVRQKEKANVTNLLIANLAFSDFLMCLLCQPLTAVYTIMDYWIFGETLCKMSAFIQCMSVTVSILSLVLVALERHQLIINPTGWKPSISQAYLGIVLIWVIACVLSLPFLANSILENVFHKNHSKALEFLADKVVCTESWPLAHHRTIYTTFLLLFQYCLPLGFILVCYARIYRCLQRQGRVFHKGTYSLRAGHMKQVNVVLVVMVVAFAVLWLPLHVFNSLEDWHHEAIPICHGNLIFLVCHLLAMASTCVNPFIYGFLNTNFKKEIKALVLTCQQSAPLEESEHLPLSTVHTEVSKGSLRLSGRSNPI

As usually defined, the pEC50 is the EC50 on a negative log10 scale, so that one unit is a factor of ten. Higher therefore signals a small EC50. Turning to `CCCCCCCCCCCCCCCC(=O)NCCCCCC(=O)NCCCC[C@H](NC(=O)[C@@H](N)[C@@H](C)CC)C(=O)N1CCN(c2ccc3ncn(CC(=O)N[C@@H](CCCNC(=N)N)C(=O)N[C@@H](Cc4c[nH]cn4)C(=O)N[C@@H](Cc4ccc(O)cc4)C(=O)N[C@@H](CC(C)C)C(=O)N[C@@H](CC(N)=O)C(=O)N[C@@H](Cc4c[nH]c5ccccc45)C(=O)N[C@H](C(=O)N[C@H](C(=O)N[C@@H](CCCNC(=N)N)C(=O)N[C@@H](CCC(N)=O)C(=O)N(C)[C@@H](CCCNC(=N)N)C(=O)N[C@@H](Cc4ccc(O)cc4)C(N)=O)[C@@H](C)O)C(C)C)c(=O)c3c2)CC1` [Example 18], the negative-log EC50 (pEC50) on Y4R is < 5.30; on hNPY2R [1], 10.92; at Y1R it was < 5.30; on Y5R, 5.93; on hNPY2R [2], 9.74.
In the case of `CCCCCCCCCCCCCCCC(=O)NCCCCCC(=O)N[C@H](C(=O)N[C@@H](CCCCN)C(=O)N1CCN(c2ccc3ncn(CC(=O)N[C@@H](CCCNC(=N)N)C(=O)N[C@@H](Cc4c[nH]cn4)C(=O)N[C@@H](Cc4ccc(O)cc4)C(=O)N[C@@H](CC(C)C)C(=O)N[C@@H](CC(N)=O)C(=O)N[C@@H](Cc4c[nH]c5ccccc45)C(=O)N[C@H](C(=O)N[C@H](C(=O)N[C@@H](CCCNC(=N)N)C(=O)N[C@@H](CCC(N)=O)C(=O)N[C@@H](CCCNC(=N)N)C(=O)N[C@@H](Cc4ccc(O)cc4)C(N)=O)[C@@H](C)O)C(C)C)c(=O)c3c2)CC1)[C@@H](C)CC` [Example 17], the pEC50 on Y4R was 4.84; on hNPY2R [1], 10.05; at Y1R, < 5.30; at Y5R, 7.57; on hNPY2R [2], 9.60.
In the case of `CCCCCCCCCCCCCCCCCCCC(=O)NCCOCCOCCOCCC(=O)NCCCC[C@H](NC(=O)[C@@H](N)[C@@H](C)CC)C(=O)N1CCN(c2ccc3ncn(CC(=O)N[C@@H](CCCNC(=N)N)C(=O)N[C@@H](Cc4c[nH]cn4)C(=O)N[C@@H](Cc4ccc(O)cc4)C(=O)N[C@@H](CC(C)C)C(=O)N[C@@H](CC(N)=O)C(=O)N[C@@H](Cc4c[nH]c5ccccc45)C(=O)N[C@H](C(=O)N[C@H](C(=O)N[C@@H](CCCNC(=N)N)C(=O)N[C@@H](CCC(N)=O)C(=O)N(C)[C@@H](CCCNC(=N)N)C(=O)N[C@@H](Cc4ccc(O)cc4)C(N)=O)[C@@H](C)O)C(C)C)c(=O)c3c2)CC1` [Example 35], the pEC50 on Y4R is < 5.30; on hNPY2R [1], 8.99; on Y1R, < 5.30; at Y5R, 6.30; at hNPY2R [2] it was 9.96. Also, on Y5R, the Emax is 65%.
Regarding `CCCCCCCCCCCCCCCCCCCC(=O)NCCOCCOCCNC(=O)CCC(=O)NCCCC[C@H](NC(=O)[C@@H](N)[C@@H](C)CC)C(=O)N1CCN(c2ccc3ncn(CC(=O)N[C@@H](CCCNC(=N)N)C(=O)N[C@@H](Cc4c[nH]cn4)C(=O)N[C@@H](Cc4ccc(O)cc4)C(=O)N[C@@H](CC(C)C)C(=O)N[C@@H](CC(N)=O)C(=O)N[C@@H](Cc4c[nH]c5ccccc45)C(=O)N[C@H](C(=O)N[C@H](C(=O)N[C@@H](CCCNC(=N)N)C(=O)N[C@@H](CCC(N)=O)C(=O)N(C)[C@@H](CCCNC(=N)N)C(=O)N[C@@H](Cc4ccc(O)cc4)C(N)=O)[C@@H](C)O)C(C)C)c(=O)c3c2)CC1` [Example 37], the pEC50 at Y4R is < 5.30; on hNPY2R [1], 9.44; on Y1R, < 5.30; on Y5R it was 7.11; at hNPY2R [2] it was 9.89. The Emax on Y5R was determined as 48%.
